The record followed here is ChEMBL document CHEMBL4613239, “α-Glucosidase and Protein Tyrosine Phosphatase 1B Inhibitors from Malbranchea circinata” (J Nat Prod, 2020).

The source made the active and inactive calls. The rule behind the calls is not given here.

The nature of test [1]: Inhibition of Saccharomyces cerevisiae alpha-glucosidase using pNPG as substrate preincubated for 10 mins followed by substrate addition after 20 mins.
The target of test [2] is T1, Tyrosine-protein phosphatase non-receptor type 1 (Homo sapiens) (UniProt P18031).
T1 sequence (whole entry): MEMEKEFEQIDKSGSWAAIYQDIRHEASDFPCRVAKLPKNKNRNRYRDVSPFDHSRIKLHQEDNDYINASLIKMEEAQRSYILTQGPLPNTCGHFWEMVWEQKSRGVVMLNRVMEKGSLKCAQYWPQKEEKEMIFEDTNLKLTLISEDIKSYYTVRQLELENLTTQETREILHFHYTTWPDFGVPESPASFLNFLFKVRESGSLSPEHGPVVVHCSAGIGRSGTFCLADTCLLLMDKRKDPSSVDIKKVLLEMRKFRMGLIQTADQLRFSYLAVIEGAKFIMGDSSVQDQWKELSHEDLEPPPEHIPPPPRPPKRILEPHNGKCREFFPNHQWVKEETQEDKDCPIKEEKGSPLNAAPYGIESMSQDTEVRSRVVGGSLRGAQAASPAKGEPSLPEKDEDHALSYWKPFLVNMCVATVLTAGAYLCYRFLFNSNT
The experiment in a line: (§1) Inhibition of human PTP1B expressed in Escherichia coli BL21 (DE3) cells using PNPP as substate preincubated for 5 mins followed by substrate additon and measured after 15 mins.

The nature of test [3]: Inhibition of rat intestinal rat alpha-glucosidase.
For test [4], the system named is Mus musculus. The test can be described thus: Induction of hypo glycemic activity in ICR mouse assessed as reduction in postprandial glucose level at 10 mg/kg, po pretreated for 30 mins followed by sucrose treatment and measured after 30 to 120 mins. Format: functional, organism-based.
Test [5] deals with T2, Tyrosine-protein phosphatase non-receptor type 1 (Homo sapiens, UniProt P18031).
T2 sequence (P18031 whole entry): T1 sequence (whole entry)
The test is described as §1.

Take `O=C1Nc2ccccc2-c2nc3ccccc3c(=O)n2-c2c(O)cccc21`: the IC50 in test [1] turned out to be 117 µM. Also, in test [2], the inhibition result is “Active”.
Regarding `CC(=O)O[C@H]1[C@@H](O)[C@@H](Oc2cccc3c2C(=O)c2c(O)cc(C)cc2C3=O)O[C@@H]1CO`, the inhibition entry in test [2] is “Active”.
Take `C[C@H]1O[C@H](O[C@H]2[C@H](O)[C@@H](O)[C@@H](O[C@H]3[C@H](O)[C@@H](O)C(O)O[C@@H]3CO)O[C@@H]2CO)[C@H](O)[C@@H](O)[C@@H]1N[C@H]1C=C(CO)[C@@H](O)[C@H](O)[C@H]1O` (stereo partly specified) [ACARBOSE]: the half-maximal inhibitory concentration (IC50) in test [1] is 586 µM; in test [3], 151 µM. In test [4], the result was Active.
As for `CC1(C)c2[nH]c3cc(Cl)c(Cl)cc3c2C[C@@]23CN4CCC[C@]4(C[C@@H]12)C(=O)N3`, the IC50 in test [1] is 71.3 µM; in test [3], 459 µM; in test [5], 14.5 µM. In test [4], the outcome was Active.
For `Cc1cc(O)c2c(c1)C(=O)c1cc(O[C@H]3O[C@H](CO)[C@@H](O)[C@H]3O)cc(O)c1C2=O`, the IC50 in test [1] is 261 µM. Also, the inhibition entry in test [2] was “Active”.
Take `COC1CCC(=O)c2c(O)c(-c3cc(O)c4c(c3O)C(=O)CCC4OC)cc(O)c21` (stereo unspecified): the IC50 in test [5] is 10.9 µM.
For `CC(=O)OC[C@H]1O[C@H](Oc2cc(O)c3c(c2)C(=O)c2cc(C)cc(O)c2C3=O)[C@H](OC(C)=O)[C@@H]1OC(C)=O`, the inhibition entry in test [2] was “Active”.
`C=CC(C)(C)[C@@]12C[C@@H]3C(=O)N4[C@H](C[C@@]5(C(C)(C)C=C)c6ccccc6N[C@@H]45)C(=O)N3[C@@H]1Nc1ccccc12`: the IC50 in test [1] worked out at 57.4 µM; in test [3], 743 µM; in test [5], 15.3 µM.
For `CC(C)=CCc1ccc(O)c2c(=O)c3c(O)cc(C)c(O)c3oc12`, in test [5], half-maximal inhibition (IC50) was put at 13.9 µM.
In the case of `CC(=O)O[C@H]1[C@@H](Oc2cc(O)c3c(c2)C(=O)c2cc(C)cc(O)c2C3=O)O[C@H](CO)[C@H]1OC(C)=O`, the inhibition entry in test [2] was “Active”.
On to `O=C1Nc2ccccc2-c2nc3ccccc3c(=O)n2-c2ccccc21`, for which, in test [1], half-maximal inhibition (IC50) was put at 144 µM. Further, in test [2], the inhibition result is “Active”.

In general, IC50 refers to the concentration that gives 50% inhibition. Low readings indicate inhibition by little substance, high ones a need for much substance.
